One test deals with CaMKIIIβ(h). In words: Kinase profiling of R428. The note with it: 100 μM ATP, lower number = more robust inhibition. The format is biochemical, human. The procedure:
The efficiency of the AXL inhibitor R428 for targeting different kinases was assessed by Kinase Profiling Services using 100 μM ATP concentration (EMD Millipore). R428 was tested at 1 and 10 μM. Table IV lists the kinases profiled along with the efficiency in targeting the kinases with a lower number indicating a more robust inhibition of a particular kinase.

The next test concerns MAFA expression. Kind of test: Small molecule screen at Stage 6 or 7, real-time PCR (Example 2). The format is cell-based, human. The conditions noted are these: added at Stage 7, 1 μM, H1-derived cells at air-liquid interface. The protocol: Cells of the human embryonic stem cell line H1 (WA01) at passage 42 were seeded as single cells at 1×10^5 cells/cm^2 on MATRIGEL™ (1:30 dilution)-coated dishes in a media comprising of DMEM-F12, GlutaMAX™ (1:100 dilution), 0.25 mM ascorbic acid, 100 ng/ml of FGF2 (R & D systems, MN), 1 ng/ml of TGF-β, ITS-X (1:100 dilution), 2% FAF-BSA, and 20 ng/ml of IGF-1, supplemented with 10 μM of Y-27632. Forty-eight hours post-seeding, the cultures were washed in incomplete PBS (phosphate buffered saline without Mg or Ca) followed by incubation with 1× TrypLE™ Express Enzyme (Life Science; Catalog No. 14190) for 3 to 5 minutes at 37° C. The released cells were rinsed with DMEM-F12 and spun at 1000 rpm for 5 minutes. The resulting cell pellet was resuspended in DMEM-F12 supplemented with 10 μM Y-27632, 1× GlutaMAX™, 0.25 mM ascorbic acid, 100 ng/ml FGF2, 1 ng/ml TGF-β, ITS-X at a 1:100 dilution, 2% FAF-BSA and 20 ng/ml of IGF-1 and the single cell suspension was seeded at approximately 1.3 to 1.5×10^5 cells/cm^2. The cultures were fed every day with medium and differentiation, according to the following protocol, was initiated 48 hours following seeding resulting in an about 90% starting confluency. […]
At Stages 6 or 7, various small molecules were added and their effect was evaluated by real-time PCR.
Background: Real-time PCR tracks product formation cycle by cycle.

The next test deals with UCN3 expression. In words: Stage 7 treatment, real-time PCR of UCN3 (Example 6). It is filed as cell-based, human. The conditions noted are these: Stage 7, day 7, 2 μM in Stage 7 medium, H1-derived cells, mRNA. The procedure: (§1) Cells of the human embryonic stem cell line H1 (WA01) were seeded as single cells at 1×10^5 cells/cm^2 on MATRIGEL™ (1:30 dilution) coated dishes in E8 media. At about 70 to 80% confluency, the cultures were washed in 1× incomplete DPBS followed by incubation with 1× TrypLET™ Express Enzyme for 3 to 5 minutes at 37° C. The released cells were rinsed with E8 and spun at 1000 rpm for 5 minutes. The resulting cell pellet was resuspended in E8 supplemented with 10 μM Y-27632 and the single cell suspension was seeded at approximately 1.3 to 1.5×10^5 cells/cm^2. The cultures were fed every day with E8 medium and differentiation, according to the following protocol, was initiated 48 hrs. following seeding resulting in an about 90% starting confluency.
(§2) Stage 6 cells were cultured for seven days in BLAR medium supplemented with a 1:100 dilution of ITS-X; 20 mM glucose (final); 1.5 g/L sodium bicarbonate; 2% FAF-BSA; 10 μg/ml of heparin, 10 μM ZnSO4, 1 μM T3 as 3,3′, 5-triiodo-L-thyronine sodium salt, 10 μM ALK5 inhibitor II, 1 mM N-acetyl cysteine. […]
(§3) At Stage 7, day 7, mRNA was collected and expression of MAFA, UCN3, PDX1, NKX6.1, insulin and G6PC2 evaluated as compared to undifferentiated human stem cells. […]

For a further test, the system named is G6PC2 expression. Kind of test: Stage 7 treatment, real-time PCR of G6PC2 (Example 6). It is filed as cell-based, human. The conditions noted are these: Stage 7, day 7, 2 μM in Stage 7 medium, H1-derived cells, mRNA. The protocol: as §1, §2, §3

Turning to `Nc1nc(Nc2ccc3c(c2)CC[C@@H](N2CCCC2)CC3)nn1-c1cc2c(nn1)-c1ccccc1CCC2` [R428, 1H-1,2,4-Triazole-3,5-diamine, 1-(6,7-dihydro-5H-benzo[6,7]cyclohepta[1,2-c]pyridazin-3-yl) N3-[(7S)-6,7,8,9-tetrahydro-7-(1-pyrrolidinyl)-5H-benzocyclohepten-2-yl]-], the results for the “efficiency in targeting CaMKIIIβ(h)” value with CaMKIIIβ(h) (R428 @ 1 μM) and with CaMKIIIβ(h) (R428 @ 10 μM) were 76 and 5, respectively. Further, the “expression of MAFA as compared to untreated cultures” value in the test with MAFA expression is “significantly upregulated”. For the same compound, in the test with UCN3 expression, the UCN3 expression entry is “reduces other beta cell maturation markers”. In addition, the G6PC2 expression result with G6PC2 expression is recorded as “reduces other beta cell maturation markers”.

These data come from patent US10870832B2, “Use of small molecules to enhance MAFA expression in pancreatic endocrine cells” (Janssen Biotech, Inc., priority 2014, dated 2020).
